Test system: HEK293 Freestyle cells
Assay: Recombinant protein expression in HEK293 Freestyle cells
Assay type: cell-based
Settings: 70 nM; proteins with a yield of about ≤4 mg/L
Method: To further evaluate general utility of the compounds identified in the HA yield studies, one of the lead compounds, BYF589, was tested on recombinant protein expression using heterologous cells. In particular, proteins that had been previously found to be difficult to express in HEK293 cells were included, which are referred to as “low yielders.” In a typical optimized system, low yielders are defined as having a yield of 5 mg/L or less. About 20 constructs of target proteins with typical yields of between 2-10 mg/L were selected for the experiments. They are secreted mammalian proteins, which are truncated versions of full length counterparts. Each construct (in a variant of the pRS5a vector) contained at least one tag (e.g., at least a C-terminal FlagHis tag—in addition, many are fused N- or C-terminally to mouse IgG1 Fc). Roughly equal numbers of each tag type were selected to reduce bias.
All targets with yields <1 mg/L or >10 mg/L were removed. Next, targets were sorted by tag type. Finally, if it looked like a particular molecular weight range was heavily represented, a few “duplicates” were culled. Then, to select samples, first 6-7 from each tag type were included without additional selection criteria. Resulting target list is reproduced below.
The BYF589 compound was dissolved in DMSO to finally provide a 70 μM working stock (1000×). […]

SMILES: O=C(O)C[C@H](O)C[C@H](O)/C=C/c1c(C2CC2)nc2ccccc2c1-c1ccc(F)cc1 [Compound G, (3R, 5S, 6E)-7-[2-cyclopropyl-4-(4-fluorophenyl)-quinolin-3-yl)-3,5-dihydroxyhept-6-enoic acid]
- increase in recombinant protein yield: ≥ 1.5 fold

Reference: patent US11897918B2, “Compositions and methods to increase production” (priority 2014, dated 2024)
